Experimental data taken from publication PMC6874179, “Development of Macrocycle Kinase Inhibitors for ALK2 Using Fibrodysplasia Ossificans Progressiva‐Derived Endothelial Cells” (JBMR Plus, 2019).

Legend:
PDGFRA_T674I = biological target: T1, PDGFRA_T674I (Homo sapiens, UniProt P16234, T674I); assay: Proqinase Kinase profiling; type: biochemical; settings: read-out: % inhibition at 100nM
T1 construct: purchased DiscoverX

AURKC = biological target: T2, AURKC (Homo sapiens, UniProt Q9UQB9); assay: Proqinase Kinase profiling; type: biochemical; settings: read-out: % inhibition at 100nM
T2 construct: purchased DiscoverX
T2 sequence (Q9UQB9 whole entry): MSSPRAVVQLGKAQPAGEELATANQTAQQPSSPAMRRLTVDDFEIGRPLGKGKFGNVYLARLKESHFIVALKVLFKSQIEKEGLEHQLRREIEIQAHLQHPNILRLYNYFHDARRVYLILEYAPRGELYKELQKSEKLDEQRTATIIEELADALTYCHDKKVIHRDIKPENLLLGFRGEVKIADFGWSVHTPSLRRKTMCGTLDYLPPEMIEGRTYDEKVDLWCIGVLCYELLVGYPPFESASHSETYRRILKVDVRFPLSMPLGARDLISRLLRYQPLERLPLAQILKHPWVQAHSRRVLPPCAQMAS

LCK = biological target: T3, LCK (Homo sapiens, UniProt P06239); assay: Proqinase Kinase profiling; type: biochemical; settings: read-out: % inhibition at 100nM
T3 construct: purchased DiscoverX
T3 sequence (P06239 whole entry): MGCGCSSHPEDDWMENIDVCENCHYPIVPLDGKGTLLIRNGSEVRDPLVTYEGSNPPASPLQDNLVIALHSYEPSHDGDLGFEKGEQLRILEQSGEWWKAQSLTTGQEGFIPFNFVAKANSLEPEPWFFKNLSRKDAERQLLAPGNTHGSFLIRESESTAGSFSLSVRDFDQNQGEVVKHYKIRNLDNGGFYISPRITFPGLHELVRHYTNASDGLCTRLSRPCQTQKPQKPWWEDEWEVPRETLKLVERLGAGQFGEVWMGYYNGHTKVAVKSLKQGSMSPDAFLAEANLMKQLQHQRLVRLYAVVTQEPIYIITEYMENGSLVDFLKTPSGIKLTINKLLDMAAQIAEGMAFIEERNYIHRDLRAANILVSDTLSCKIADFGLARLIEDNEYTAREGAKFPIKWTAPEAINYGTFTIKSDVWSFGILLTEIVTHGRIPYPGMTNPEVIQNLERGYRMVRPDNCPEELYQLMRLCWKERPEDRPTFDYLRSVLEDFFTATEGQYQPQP

EGFR_T790M = biological target: T4, EGFR_T790M (Homo sapiens, UniProt P00533, T790M); assay: Proqinase Kinase profiling; type: biochemical; settings: read-out: % inhibition at 100nM
T4 construct: purchased DiscoverX

MELK = biological target: T5, MELK (Homo sapiens, UniProt Q14680); assay: Proqinase Kinase profiling; type: biochemical; settings: read-out: % inhibition at 100nM
T5 construct: purchased DiscoverX

CAMK1D = biological target: T6, CAMK1D (Homo sapiens, UniProt Q8IU85); assay: Proqinase Kinase profiling; type: biochemical; settings: read-out: % inhibition at 100nM
T6 construct: purchased DiscoverX

CDK5_p25 = biological target: T7, CDK5_p25 (Homo sapiens, UniProt Q00535); assay: Proqinase Kinase profiling; type: biochemical; settings: read-out: % inhibition at 100nM
T7 construct: purchased DiscoverX

MAP2K6 = biological target: T8, MAP2K6 (Homo sapiens, UniProt P52564); assay: Proqinase Kinase profiling; type: biochemical; settings: read-out: % inhibition at 100nM
T8 construct: purchased DiscoverX

STK3 = biological target: T9, STK3 (Homo sapiens, UniProt Q13188); assay: Proqinase Kinase profiling; type: biochemical; settings: read-out: % inhibition at 100nM
T9 construct: purchased DiscoverX

MAPK8 = biological target: T10, MAPK8 (Homo sapiens, UniProt P45983); assay: Proqinase Kinase profiling; type: biochemical; settings: read-out: % inhibition at 100nM
T10 construct: purchased DiscoverX
T10 sequence (P45983 whole entry): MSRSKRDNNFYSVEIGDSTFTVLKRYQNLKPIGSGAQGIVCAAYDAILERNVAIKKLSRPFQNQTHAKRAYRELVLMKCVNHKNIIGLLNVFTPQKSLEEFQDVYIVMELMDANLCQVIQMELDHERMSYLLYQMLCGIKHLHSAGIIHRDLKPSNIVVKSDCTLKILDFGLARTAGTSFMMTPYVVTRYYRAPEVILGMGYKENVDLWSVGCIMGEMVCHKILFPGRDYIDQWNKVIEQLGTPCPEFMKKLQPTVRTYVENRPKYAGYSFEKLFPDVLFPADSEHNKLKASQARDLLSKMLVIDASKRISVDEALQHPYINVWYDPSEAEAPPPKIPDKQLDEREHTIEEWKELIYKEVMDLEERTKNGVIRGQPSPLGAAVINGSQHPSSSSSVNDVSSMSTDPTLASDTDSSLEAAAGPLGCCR

CDK4_cyclinD1 = biological target: T11, CDK4_cyclinD1 (Homo sapiens, UniProt P11802); assay: Proqinase Kinase profiling; type: biochemical; settings: read-out: % inhibition at 100nM
T11 construct: purchased DiscoverX
T11 sequence (P11802 whole entry): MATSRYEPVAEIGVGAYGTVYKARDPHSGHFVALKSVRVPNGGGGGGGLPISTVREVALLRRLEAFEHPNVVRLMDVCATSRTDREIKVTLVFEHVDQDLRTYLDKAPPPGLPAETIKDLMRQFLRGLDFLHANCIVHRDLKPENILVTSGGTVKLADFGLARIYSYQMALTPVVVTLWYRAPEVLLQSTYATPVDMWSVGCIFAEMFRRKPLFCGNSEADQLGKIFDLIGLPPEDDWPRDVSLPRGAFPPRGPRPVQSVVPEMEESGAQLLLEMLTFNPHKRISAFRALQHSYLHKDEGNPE
T11 sequence (P24385 whole entry partner): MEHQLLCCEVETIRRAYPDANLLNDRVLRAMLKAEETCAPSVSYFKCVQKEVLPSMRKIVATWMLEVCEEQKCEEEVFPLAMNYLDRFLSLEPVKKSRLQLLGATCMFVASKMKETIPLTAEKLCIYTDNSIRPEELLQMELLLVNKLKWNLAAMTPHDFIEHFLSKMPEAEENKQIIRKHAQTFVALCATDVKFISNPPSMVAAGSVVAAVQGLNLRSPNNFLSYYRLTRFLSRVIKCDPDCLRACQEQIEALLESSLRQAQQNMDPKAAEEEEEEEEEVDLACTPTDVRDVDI

EGFR_L747-S752del_P753S = biological target: T12, EGFR_L747-S752del_P753S (Homo sapiens, UniProt P00533, DEL747-752/P753S); assay: Proqinase Kinase profiling; type: biochemical; settings: read-out: % inhibition at 100nM
T12 construct: purchased DiscoverX

CDK6_cyclinD1 = biological target: T13, CDK6_cyclinD1 (Homo sapiens, UniProt Q00534); assay: Proqinase Kinase profiling; type: biochemical; settings: read-out: % inhibition at 100nM
T13 construct: purchased DiscoverX

ABL2 = biological target: T14, ABL2 (Homo sapiens, UniProt P42684); assay: Proqinase Kinase profiling; type: biochemical; settings: read-out: % inhibition at 100nM
T14 construct: purchased DiscoverX

NUAK1 = biological target: T15, NUAK1 (Homo sapiens, UniProt O60285); assay: Proqinase Kinase profiling; type: biochemical; settings: read-out: % inhibition at 100nM
T15 construct: purchased DiscoverX
T15 sequence (O60285 whole entry): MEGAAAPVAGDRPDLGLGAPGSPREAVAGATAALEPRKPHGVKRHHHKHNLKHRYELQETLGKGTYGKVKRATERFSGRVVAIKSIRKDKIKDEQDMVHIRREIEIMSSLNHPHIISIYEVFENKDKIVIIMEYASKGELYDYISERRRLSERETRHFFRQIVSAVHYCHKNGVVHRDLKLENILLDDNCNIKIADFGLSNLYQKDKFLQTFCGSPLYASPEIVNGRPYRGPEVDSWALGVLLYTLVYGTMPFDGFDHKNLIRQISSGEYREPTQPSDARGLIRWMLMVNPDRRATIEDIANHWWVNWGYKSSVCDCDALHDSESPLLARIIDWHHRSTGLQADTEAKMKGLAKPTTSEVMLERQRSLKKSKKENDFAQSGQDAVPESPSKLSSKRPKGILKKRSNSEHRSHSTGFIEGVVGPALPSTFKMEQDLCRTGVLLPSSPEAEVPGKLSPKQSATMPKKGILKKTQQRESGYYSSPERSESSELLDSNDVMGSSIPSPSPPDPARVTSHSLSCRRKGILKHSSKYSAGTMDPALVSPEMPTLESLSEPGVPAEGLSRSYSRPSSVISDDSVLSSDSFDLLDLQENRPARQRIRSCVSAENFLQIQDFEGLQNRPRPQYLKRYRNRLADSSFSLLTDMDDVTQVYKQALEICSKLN

SRPK1 = biological target: T16, SRPK1 (Homo sapiens, UniProt Q96SB4); assay: Proqinase Kinase profiling; type: biochemical; settings: read-out: % inhibition at 100nM
T16 construct: purchased DiscoverX

CAMK4 = biological target: T17, CAMK4 (Homo sapiens, UniProt Q16566); assay: Proqinase Kinase profiling; type: biochemical; settings: read-out: % inhibition at 100nM
T17 construct: purchased DiscoverX
T17 sequence (Q16566 whole entry): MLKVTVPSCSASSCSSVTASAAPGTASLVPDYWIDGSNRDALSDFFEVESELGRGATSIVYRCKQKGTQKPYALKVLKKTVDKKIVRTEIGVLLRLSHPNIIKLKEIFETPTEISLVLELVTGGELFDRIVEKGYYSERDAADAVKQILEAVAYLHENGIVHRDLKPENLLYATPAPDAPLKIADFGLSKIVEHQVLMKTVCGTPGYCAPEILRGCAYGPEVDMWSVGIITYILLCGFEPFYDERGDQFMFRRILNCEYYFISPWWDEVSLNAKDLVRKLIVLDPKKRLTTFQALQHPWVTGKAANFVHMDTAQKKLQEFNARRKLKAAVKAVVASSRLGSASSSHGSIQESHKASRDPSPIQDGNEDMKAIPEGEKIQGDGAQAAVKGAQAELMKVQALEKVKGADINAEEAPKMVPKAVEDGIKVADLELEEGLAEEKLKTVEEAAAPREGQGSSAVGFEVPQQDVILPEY

MAP3K9 = biological target: T18, MAP3K9 (Homo sapiens, UniProt P80192); assay: Proqinase Kinase profiling; type: biochemical; settings: read-out: % inhibition at 100nM
T18 construct: purchased DiscoverX

BRAF_V600E = biological target: T19, BRAF_V600E (Homo sapiens, UniProt P15056, V600E); assay: Proqinase Kinase profiling; type: biochemical; settings: read-out: % inhibition at 100nM
T19 construct: purchased DiscoverX

FLT3_D835Y = biological target: T20, FLT3_D835Y (Homo sapiens, UniProt P36888, D835Y); assay: Proqinase Kinase profiling; type: biochemical; settings: read-out: % inhibition at 100nM
T20 construct: purchased DiscoverX

STK33 = biological target: T21, STK33 (Homo sapiens, UniProt Q9BYT3); assay: Proqinase Kinase profiling; type: biochemical; settings: read-out: % inhibition at 100nM
T21 construct: purchased DiscoverX

EPHB4 = biological target: T22, EPHB4 (Homo sapiens, UniProt P54760); assay: Proqinase Kinase profiling; type: biochemical; settings: read-out: % inhibition at 100nM
T22 construct: purchased DiscoverX

ERBB2 = biological target: T23, ERBB2 (Homo sapiens, UniProt P04626); assay: Proqinase Kinase profiling; type: biochemical; settings: read-out: % inhibition at 100nM
T23 construct: purchased DiscoverX

PRKCQ = biological target: T24, PRKCQ (Homo sapiens, UniProt Q04759); assay: Proqinase Kinase profiling; type: biochemical; settings: read-out: % inhibition at 100nM
T24 construct: purchased DiscoverX

PLK4 = biological target: T25, PLK4 (Homo sapiens, UniProt O00444); assay: Proqinase Kinase profiling; type: biochemical; settings: read-out: % inhibition at 100nM
T25 construct: purchased DiscoverX
T25 sequence (O00444 whole entry): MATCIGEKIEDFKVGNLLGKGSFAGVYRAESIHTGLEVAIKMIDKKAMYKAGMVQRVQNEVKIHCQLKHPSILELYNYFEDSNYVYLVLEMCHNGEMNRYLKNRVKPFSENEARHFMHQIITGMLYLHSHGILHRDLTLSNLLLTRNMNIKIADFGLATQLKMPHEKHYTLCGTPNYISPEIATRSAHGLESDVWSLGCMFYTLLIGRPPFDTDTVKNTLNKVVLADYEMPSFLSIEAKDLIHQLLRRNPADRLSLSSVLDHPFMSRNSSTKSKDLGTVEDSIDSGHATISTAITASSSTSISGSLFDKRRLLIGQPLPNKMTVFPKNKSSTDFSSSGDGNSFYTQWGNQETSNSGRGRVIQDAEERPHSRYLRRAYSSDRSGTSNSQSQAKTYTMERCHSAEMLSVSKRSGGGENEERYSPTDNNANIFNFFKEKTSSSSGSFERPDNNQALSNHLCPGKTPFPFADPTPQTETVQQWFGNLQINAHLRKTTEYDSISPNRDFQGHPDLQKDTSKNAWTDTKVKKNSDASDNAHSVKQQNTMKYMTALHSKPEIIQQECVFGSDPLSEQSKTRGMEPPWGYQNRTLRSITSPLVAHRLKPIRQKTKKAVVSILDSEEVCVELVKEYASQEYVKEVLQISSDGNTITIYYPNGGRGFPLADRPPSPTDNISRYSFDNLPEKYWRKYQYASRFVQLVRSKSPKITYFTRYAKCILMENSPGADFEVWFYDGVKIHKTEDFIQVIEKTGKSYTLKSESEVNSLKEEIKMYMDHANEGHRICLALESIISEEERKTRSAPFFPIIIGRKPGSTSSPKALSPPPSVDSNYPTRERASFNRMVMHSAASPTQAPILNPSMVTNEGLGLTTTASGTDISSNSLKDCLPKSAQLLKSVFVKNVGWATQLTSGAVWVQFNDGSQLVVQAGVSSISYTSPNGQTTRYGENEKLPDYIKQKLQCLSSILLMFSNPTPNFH

CSNK2A2 = biological target: T26, CSNK2A2 (Homo sapiens, UniProt P19784); assay: Proqinase Kinase profiling; type: biochemical; settings: read-out: % inhibition at 100nM
T26 construct: purchased DiscoverX

WNK1 = biological target: T27, WNK1 (Homo sapiens, UniProt Q9H4A3); assay: Proqinase Kinase profiling; type: biochemical; settings: read-out: % inhibition at 100nM
T27 construct: purchased DiscoverX

CLK3 = biological target: T28, CLK3 (Homo sapiens, UniProt P49761); assay: Proqinase Kinase profiling; type: biochemical; settings: read-out: % inhibition at 100nM
T28 construct: purchased DiscoverX

WNK3 = biological target: T29, WNK3 (Homo sapiens, UniProt Q9BYP7); assay: Proqinase Kinase profiling; type: biochemical; settings: read-out: % inhibition at 100nM
T29 construct: purchased DiscoverX

CAMK2A = biological target: T30, CAMK2A (Homo sapiens, UniProt Q9UQM7); assay: Proqinase Kinase profiling; type: biochemical; settings: read-out: % inhibition at 100nM
T30 construct: purchased DiscoverX

ACVR1B = biological target: T31, ACVR1B (Homo sapiens, UniProt P36896); assay: Proqinase Kinase profiling; type: biochemical; settings: read-out: % inhibition at 100nM
T31 construct: purchased DiscoverX

MAP3K11 = biological target: T32, MAP3K11 (Homo sapiens, UniProt Q16584); assay: Proqinase Kinase profiling; type: biochemical; settings: read-out: % inhibition at 100nM
T32 construct: purchased DiscoverX

BMP-6-induced p-Smad1/5 = assay: Western blot of p-Smad1/5 in KS483 cells; type: cell-based, mouse
Protocol: Compounds were added for 16 hours at 0.5μM before luciferase activity was measured.
Cells were seeded into 6-well plates and cultured till they reached confluence. Next, cells were stimulated as indicated and then washed with cold PBS. […] Electrophoresis was performed in 10% SDS/polyacrylamide gels. Separated proteins were transferred to nitrocellulose membranes (0.5 A at 100 V; in ice) for 1 hour. Blots were blocked in Tris-Buffered Saline solution containing 0.1% Tween 20 and 5% non-fat dry milk overnight at 4 °C, and immune-detection of specific proteins was carried out with primary antibodies (see above) followed by horseradish peroxidase-conjugated anti-mouse or anti-rabbit (GE Healthcare, Eindhoven, The Netherlands) secondary antibodies using an ECL system (Fisher Scientific, Landsmeer, The Netherlands).

PTK2 = biological target: T33, PTK2 (Homo sapiens, UniProt Q05397); assay: Proqinase Kinase profiling; type: biochemical; settings: read-out: % inhibition at 100nM
T33 construct: purchased DiscoverX

CAMK2D = biological target: T34, CAMK2D (Homo sapiens, UniProt Q13557); assay: Proqinase Kinase profiling; type: biochemical; settings: read-out: % inhibition at 100nM
T34 construct: purchased DiscoverX

MUSK = biological target: T35, MUSK (Homo sapiens, UniProt O15146); assay: Proqinase Kinase profiling; type: biochemical; settings: read-out: % inhibition at 100nM
T35 construct: purchased DiscoverX

CLK4 = biological target: T36, CLK4 (Homo sapiens, UniProt Q9HAZ1); assay: Proqinase Kinase profiling; type: biochemical; settings: read-out: % inhibition at 100nM
T36 construct: purchased DiscoverX

EGFR_T790M_L858R = biological target: T37, EGFR_T790M_L858R (Homo sapiens, UniProt P00533, L858R/T790M); assay: Proqinase Kinase profiling; type: biochemical; settings: read-out: % inhibition at 100nM
T37 construct: purchased DiscoverX

EPHB1 = biological target: T38, EPHB1 (Homo sapiens, UniProt P54762); assay: Proqinase Kinase profiling; type: biochemical; settings: read-out: % inhibition at 100nM
T38 construct: purchased DiscoverX

T1 sequence (P16234 24-1089 T674I): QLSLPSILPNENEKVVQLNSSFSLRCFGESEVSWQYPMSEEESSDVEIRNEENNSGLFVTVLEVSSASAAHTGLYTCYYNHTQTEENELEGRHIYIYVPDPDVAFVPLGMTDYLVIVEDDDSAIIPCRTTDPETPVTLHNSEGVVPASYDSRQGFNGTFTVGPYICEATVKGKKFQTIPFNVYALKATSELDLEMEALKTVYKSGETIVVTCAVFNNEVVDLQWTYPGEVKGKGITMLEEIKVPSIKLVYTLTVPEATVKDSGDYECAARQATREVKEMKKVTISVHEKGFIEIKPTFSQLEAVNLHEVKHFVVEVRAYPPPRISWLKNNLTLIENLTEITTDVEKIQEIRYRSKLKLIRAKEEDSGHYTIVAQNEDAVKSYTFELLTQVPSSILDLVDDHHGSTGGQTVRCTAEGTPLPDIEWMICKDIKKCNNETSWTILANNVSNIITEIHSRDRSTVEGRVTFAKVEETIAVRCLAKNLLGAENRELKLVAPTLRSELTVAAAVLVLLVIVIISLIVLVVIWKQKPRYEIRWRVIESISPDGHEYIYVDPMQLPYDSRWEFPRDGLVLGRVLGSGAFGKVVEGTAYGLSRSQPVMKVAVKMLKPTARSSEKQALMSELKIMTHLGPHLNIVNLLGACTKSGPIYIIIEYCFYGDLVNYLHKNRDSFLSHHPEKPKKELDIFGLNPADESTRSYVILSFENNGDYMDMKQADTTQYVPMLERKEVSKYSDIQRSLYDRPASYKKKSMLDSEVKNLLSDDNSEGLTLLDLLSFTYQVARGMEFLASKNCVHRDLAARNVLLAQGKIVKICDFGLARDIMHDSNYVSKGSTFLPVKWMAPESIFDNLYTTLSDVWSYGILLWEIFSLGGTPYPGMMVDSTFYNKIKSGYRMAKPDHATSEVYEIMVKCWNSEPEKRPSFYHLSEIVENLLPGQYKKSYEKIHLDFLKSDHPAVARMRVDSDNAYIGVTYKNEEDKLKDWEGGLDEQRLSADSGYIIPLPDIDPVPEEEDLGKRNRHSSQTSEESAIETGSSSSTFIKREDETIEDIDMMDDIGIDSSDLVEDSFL

SMILES	inhibition at 0.1 µM (PDGFRA_T674I)	inhibition at 0.1 µM (AURKC)	inhibition at 0.1 µM (LCK)	inhibition at 0.1 µM (EGFR_T790M)	inhibition at 0.1 µM (MELK)	inhibition at 0.1 µM (CAMK1D)	inhibition at 0.1 µM (CDK5_p25)	inhibition at 0.1 µM (MAP2K6)	inhibition at 0.1 µM (STK3)	inhibition at 0.1 µM (MAPK8)	inhibition at 0.1 µM (CDK4_cyclinD1)	inhibition at 0.1 µM (EGFR_L747-S752del_P753S)	inhibition at 0.1 µM (CDK6_cyclinD1)	inhibition at 0.1 µM (ABL2)	inhibition at 0.1 µM (NUAK1)	inhibition at 0.1 µM (SRPK1)	inhibition at 0.1 µM (CAMK4)	inhibition at 0.1 µM (MAP3K9)	inhibition at 0.1 µM (BRAF_V600E)	inhibition at 0.1 µM (FLT3_D835Y)	further results
Clc1cc2cc(c1)-c1cnn3ccc(nc13)NCCOCCO2 [OD36]	-22%	13%	48%	-14%	21%	6%	10%	1%	12%	-6%	8%	10%	-5%	3%	6%	10%	-4%	13%	10%	62%	inhibition at 0.1 µM (STK33): -1%; inhibition at 0.1 µM (EPHB4): 6%; inhibition at 0.1 µM (ERBB2): 0%; inhibition at 0.1 µM (PRKCQ): 12%; inhibition at 0.1 µM (PLK4): -1%; inhibition at 0.1 µM (CSNK2A2): 8%; inhibition at 0.1 µM (WNK1): 18%; inhibition at 0.1 µM (CLK3): 14%; inhibition at 0.1 µM (WNK3): 5%; inhibition at 0.1 µM (CAMK2A): 18%; inhibition at 0.1 µM (ACVR1B): 22%; inhibition at 0.1 µM (MAP3K11): 30%; Inhibition of BMP-6-induced p-Smad1/5 (BMP-6-induced p-Smad1/5): efficiently inhibited; inhibition at 0.1 µM (PTK2): 18%; inhibition at 0.1 µM (CAMK2D): 6%; inhibition at 0.1 µM (MUSK): -1%; inhibition at 0.1 µM (CLK4): 22%; inhibition at 0.1 µM (EGFR_T790M_L858R): -13%; inhibition at 0.1 µM (EPHB1): -2%
Cc1cc2cc(c1)-c1cnn3ccc(nc13)NCCNC(=O)CCN(C)C2 [OD52]	4%	-11%	4%	-17%	15%	-4%	-2%	6%	5%	-9%	-9%	-15%	2%	-23%	-4%	-9%	-23%	4%	-1%	4%	inhibition at 0.1 µM (STK33): -13%; inhibition at 0.1 µM (EPHB4): -25%; inhibition at 0.1 µM (ERBB2): -44%; inhibition at 0.1 µM (PRKCQ): -2%; inhibition at 0.1 µM (PLK4): -1%; inhibition at 0.1 µM (CSNK2A2): 5%; inhibition at 0.1 µM (WNK1): -2%; inhibition at 0.1 µM (CLK3): 3%; inhibition at 0.1 µM (WNK3): -4%; inhibition at 0.1 µM (CAMK2A): 25%; inhibition at 0.1 µM (ACVR1B): 13%; inhibition at 0.1 µM (MAP3K11): 14%; Inhibition of BMP-6-induced p-Smad1/5 (BMP-6-induced p-Smad1/5): efficiently inhibited; inhibition at 0.1 µM (PTK2): -1%; inhibition at 0.1 µM (CAMK2D): -9%; inhibition at 0.1 µM (MUSK): -11%; inhibition at 0.1 µM (CLK4): 4%; inhibition at 0.1 µM (EGFR_T790M_L858R): 0%; inhibition at 0.1 µM (EPHB1): -26%
